Test results reported in ChEMBL document CHEMBL3608278 (J Med Chem, 2015).

Tests used:
[1] = biological target: T1, Potassium voltage-gated channel subfamily A member 3 (Homo sapiens, UniProt P22001); design: species or system Blood
[2] = biological target: T1, Potassium voltage-gated channel subfamily A member 3; assay: cell-based; design: species or system Blood

T1 sequence (P22001 whole entry): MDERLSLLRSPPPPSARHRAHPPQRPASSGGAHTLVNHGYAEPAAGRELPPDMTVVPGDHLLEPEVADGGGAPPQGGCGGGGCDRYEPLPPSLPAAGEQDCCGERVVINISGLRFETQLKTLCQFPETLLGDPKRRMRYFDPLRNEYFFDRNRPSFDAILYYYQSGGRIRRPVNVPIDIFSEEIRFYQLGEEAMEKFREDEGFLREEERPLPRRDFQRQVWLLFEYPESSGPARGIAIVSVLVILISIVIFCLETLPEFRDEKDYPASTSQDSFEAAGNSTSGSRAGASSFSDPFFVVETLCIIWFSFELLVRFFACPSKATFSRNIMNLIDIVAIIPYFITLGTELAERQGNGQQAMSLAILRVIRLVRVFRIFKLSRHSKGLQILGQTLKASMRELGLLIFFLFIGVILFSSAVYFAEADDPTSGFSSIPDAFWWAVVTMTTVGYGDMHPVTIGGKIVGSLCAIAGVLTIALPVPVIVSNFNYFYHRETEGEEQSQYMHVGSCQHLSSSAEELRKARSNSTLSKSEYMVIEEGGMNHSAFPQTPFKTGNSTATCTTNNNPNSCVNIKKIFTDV

CC[C@H](C)[C@@H]1NC(=O)[C@@H](NC(=O)[C@H](CO)NC(=O)[C@@H](N)CCCNC(=N)N)CSSC[C@@H](C(=O)O)NC(=O)[C@H]([C@@H](C)O)NC(=O)CNC(=O)[C@@H]2CSSC[C@@H]3NC(=O)[C@H](CCC(N)=O)NC(=O)[C@H](Cc4ccccc4)NC(=O)[C@H](C)NC(=O)[C@H]([C@@H](C)O)NC(=O)[C@H](CSSC[C@H](NC(=O)[C@H](Cc4ccccc4)NC(=O)[C@H](CCC(=O)O)NC(=O)[C@H](CC(C)C)NC(=O)[C@H](CCCNC(=N)N)NC(=O)[C@H](Cc4ccc(O)cc4)NC(=O)[C@H](CCCCN)NC(=O)[C@H](CCSC)NC(=O)[C@H](CO)NC(=O)[C@H](Cc4cnc[nH]4)NC(=O)[C@H](CCCCN)NC3=O)C(=O)N[C@@H](CCCNC(=N)N)C(=O)N[C@@H](CCCCN)C(=O)N[C@@H]([C@@H](C)O)C(=O)N2)NC(=O)[C@H](CCCNC(=N)N)NC(=O)[C@H](CO)NC(=O)[C@H](CCCCN)NC(=O)[C@@H]2CCCN2C(=O)[C@H]([C@@H](C)CC)NC(=O)[C@H]([C@@H](C)O)NC(=O)[C@H](CC(=O)O)NC1=O
IC50 [1]: 0.4 nM
IC50 [2]: 0.202 nM

CC[C@H](C)[C@@H]1NC(=O)[C@@H](NC(=O)[C@H](CO)NC(=O)[C@@H](N)CCCNC(=N)N)CSSC[C@@H](C(=O)O)NC(=O)[C@H]([C@@H](C)O)NC(=O)CNC(=O)[C@@H]2CSSC[C@@H]3NC(=O)[C@H](CCC(N)=O)NC(=O)[C@H](Cc4ccccc4)NC(=O)[C@H](C)NC(=O)[C@H]([C@@H](C)O)NC(=O)[C@H](CSSC[C@H](NC(=O)[C@H](Cc4ccccc4)NC(=O)[C@H](CO)NC(=O)[C@H](CC(C)C)NC(=O)[C@H](CCCNC(=N)N)NC(=O)[C@H](Cc4ccc(O)cc4)NC(=O)[C@H](CCCCN)NC(=O)[C@H](CCSC)NC(=O)[C@H](CO)NC(=O)[C@H](Cc4cccc5ccccc45)NC(=O)[C@H](CCCCN)NC3=O)C(=O)N[C@@H](CCCNC(=N)N)C(=O)N[C@@H](CCCCN)C(=O)N[C@@H]([C@@H](C)O)C(=O)N2)NC(=O)[C@H](CCCNC(=N)N)NC(=O)[C@H](CO)NC(=O)[C@H](CCCCN)NC(=O)[C@@H]2CCCN2C(=O)[C@H]([C@@H](C)CC)NC(=O)[C@H]([C@@H](C)O)NC(=O)[C@H](CC(=O)O)NC1=O
IC50 [1]: 0.255 nM
IC50 [2]: 0.153 nM

CC[C@H](C)[C@@H]1NC(=O)[C@@H](NC(=O)[C@H](CO)NC(=O)[C@@H](N)CCCNC(=N)N)CSSC[C@@H](C(=O)O)NC(=O)[C@H]([C@@H](C)O)NC(=O)CNC(=O)[C@@H]2CSSC[C@@H]3NC(=O)[C@H](CCC(N)=O)NC(=O)[C@H](Cc4ccccc4)NC(=O)[C@H](C)NC(=O)[C@H]([C@@H](C)O)NC(=O)[C@H](CSSC[C@H](NC(=O)[C@H](Cc4ccccc4)NC(=O)[C@H](CO)NC(=O)[C@H](CC(C)C)NC(=O)[C@H](CCCNC(=N)N)NC(=O)[C@H](Cc4ccc(O)cc4)NC(=O)[C@H](CCCCN)NC(=O)[C@H](CCSC)NC(=O)[C@H](CO)NC(=O)[C@H](Cc4cnc[nH]4)NC(=O)[C@H](CCCCN)NC3=O)C(=O)N[C@@H](CCC(=O)O)C(=O)N[C@@H](CCCCN)C(=O)N[C@@H]([C@@H](C)O)C(=O)N2)NC(=O)[C@H](CCCNC(=N)N)NC(=O)[C@H](CO)NC(=O)[C@H](CCCCN)NC(=O)[C@@H]2CCCN2C(=O)[C@H]([C@@H](C)CC)NC(=O)[C@H]([C@@H](C)O)NC(=O)[C@H](CC(=O)O)NC1=O
IC50 [1]: 1.96 nM
IC50 [2]: 0.73 nM
